What all share (assay): Greenhouse test, pre-emergence treatment
The test system of experiment [1] is ABUTH. In kind it is in vivo, Abutilon theophrasti. From the text:
(§1) The seeds of the test plants were sown separately for each species. For the pre-emergence treatment, the active ingredients, which had been suspended or emulsified in water, were applied directly after sowing by means of finely distributing nozzles. The containers were irrigated gently to promote germination and growth and subsequently covered with transparent plastic hoods until the plants had rooted. This cover caused uniform germination of the test plants, unless this had been impaired by the active ingredients. Depending on the species, the plants were kept at 10-25° C. or 20-35° C., respectively. The test period extended over 2 to 4 weeks. During this time, the plants were tended, and their response to the individual treatments was evaluated. Evaluation was carried out using a scale from 0 to 100. 100 means no emergence of the plants, or complete destruction of at least the aerial moieties, and 0 means no damage, or normal course of growth. […] The plants used in the greenhouse experiments were of the following species: [table]

For experiment [2], the system named is ECHCG. Type of experiment: in vivo, Echinocloa crus-galli.
Text: as §1

The test system of experiment [3] is AMARE. Type of experiment: in vivo, Amaranthus retroflexus. To be noted: for pest or weed control at 125 g/ha: read-out: herbicidal activity, 125 g/ha; for pest or weed control at 500 g/ha: read-out: herbicidal activity, 500 g/ha.
Text: as §1

In the case of `CC1Oc2ccc(Cl)c(Nc3nc(N)nc(C(C)(C)F)n3)c2O1` (racemic) [Example 12], the herbicidal activity result in experiment [1] (250 g/ha), in experiment [2] (250 g/ha) and in experiment [3] (250 g/ha) was “very good (a very good herbicidal activity is given at values of at least 85)” each time.

With `CCC(C)c1nc(N)nc(Nc2c(F)ccc3c2OCO3)n1` (racemic) [Example 16], the figures for the herbicidal activity entry in experiment [1] (125 g/ha) and in experiment [3] (125 g/ha) were “good (a good herbicidal activity is given at values of at least 70)” and “very good (a very good herbicidal activity is given at values of at least 85)”, respectively.

For the compound `CC1CCCN1c1nc(N)nc(Nc2c(F)ccc3c2OCO3)n1` (racemic) [Example 19], in experiment [3] (500 g/ha), the herbicidal activity entry was “very good (a very good herbicidal activity is given at values of at least 85)”.

As to `COC(C)c1nc(N)nc(Nc2c(F)ccc3c2OCO3)n1` (racemic) [Example 32], the herbicidal activity result in experiment [1] (125 g/ha) and in experiment [3] (125 g/ha) was “good (a good herbicidal activity is given at values of at least 70)” throughout.

In the case of `CCC(F)c1nc(N)nc(Nc2c(F)ccc3c2OCO3)n1` (racemic) [Example 33], the herbicidal activity result in experiment [3] (125 g/ha) is recorded as “very good (a very good herbicidal activity is given at values of at least 85)”.

Turning to `CC1Oc2ccc(F)c(Nc3nc(N)nc(C(C)(C)F)n3)c2O1` (single isomer, unassigned) [Example 35], the herbicidal activity entry in experiment [2] (250 g/ha) is “very good (a very good herbicidal activity is given at values of at least 85)”.

Regarding `CC(C)(F)c1nc(N)nc(Nc2c(Br)c(Br)cc3c2OCO3)n1` [Example 4], the herbicidal activity result in experiment [1] (125 g/ha) is “good (a good herbicidal activity is given at values of at least 70)”.

Consider `CC(C)c1nc(N)nc(Nc2c(F)ccc3c2OCO3)n1` [Example 17], for which the herbicidal activity result in experiment [1] (125 g/ha) is reported as “good (a good herbicidal activity is given at values of at least 70)”. For the same compound, the pest or weed control at 125 g/ha in experiment [3] (Amaranthus retroflexus) is ≥ 85%.

Regarding `Nc1nc(Nc2c(F)ccc3c2OCO3)nc(N2CCCC2)n1` [Example 20], the pest or weed control at 500 g/ha in experiment [3] (Amaranthus retroflexus) is ≥ 85%.

Take `CON(C)c1nc(N)nc(Nc2c(F)ccc3c2OCO3)n1` [Example 25]: the herbicidal activity entry in experiment [3] (500 g/ha) is listed as “very good (a very good herbicidal activity is given at values of at least 85)”.

On to `Nc1nc(Nc2c(F)ccc3c2OCO3)nc(C2CCCC2)n1` [Example 28], for which the herbicidal activity entry in experiment [2] (125 g/ha) is “good (a good herbicidal activity is given at values of at least 70)”. In addition, in experiment [3] (Amaranthus retroflexus), the pest or weed control at 125 g/ha is ≥ 85%.

In the case of `Cn1c(=O)oc2c(Nc3nc(N)nc(C(C)(C)F)n3)c(F)ccc21` [Example 38], the herbicidal activity entry in experiment [3] (500 g/ha) is reported as “very good (a very good herbicidal activity is given at values of at least 85)”.

Regarding `CC(C)(F)c1nc(N)nc(Nc2c(F)ccc3ncoc23)n1` [Example 39], the herbicidal activity entry in experiment [1] (250 g/ha) is “very good (a very good herbicidal activity is given at values of at least 85)”. Further, the pest or weed control at 250 g/ha in experiment [3] (Amaranthus retroflexus, read-out: herbicidal activity, 250 g/ha) was ≥ 85%.

As for `CC(C)(F)c1nc(N)nc(Nc2c(F)ccc3c2CCC3)n1` [Example 41], in experiment [3] (Amaranthus retroflexus), the pest or weed control at 500 g/ha is ≥ 85%.

`CC(C)(F)c1nc(N)nc(Nc2c(Cl)ccc3c2OCCO3)n1` [Example 42]: the pest or weed control at 125 g/ha in experiment [3] (Amaranthus retroflexus) was ≥ 85%.

Regarding `CC(C)(F)c1nc(N)nc(Nc2c(F)ccc3c2OCCO3)n1` [Example 43], in experiment [3] (Amaranthus retroflexus), the pest or weed control at 500 g/ha was ≥ 85%.

In the case of `CC(C)(F)c1nc(N)nc(Nc2c(Cl)ccc3c2OC=CO3)n1` [Example 44], in experiment [2] (500 g/ha), the herbicidal activity result is recorded as “very good (a very good herbicidal activity is given at values of at least 85)”. Further, the pest or weed control at 500 g/ha in experiment [3] (Amaranthus retroflexus) is ≥ 85%.

For `CC(C)(F)c1nc(N)nc(Nc2c(F)ccc3c2OC=CO3)n1` [Example 45], in experiment [1] (125 g/ha), the herbicidal activity entry is reported as “very good (a very good herbicidal activity is given at values of at least 85)”. For the same compound, the pest or weed control at 125 g/ha in experiment [3] (Amaranthus retroflexus) is ≥ 85%.

Turning to `CC(C)(F)c1nc(N)nc(Nc2c(Cl)ccc3c2CCC3)n1` [Example 47], the herbicidal activity result in experiment [1] (250 g/ha) and in experiment [2] (250 g/ha) was “good (a good herbicidal activity is given at values of at least 70)” each time.

These data come from US9822105B2, “Diaminotriazine compounds as herbicides” (BASF SE, priority 2014, dated 2017).
